SMILES strings stand for the structures.

Usually IC50 stands for the concentration at which inhibition is half-maximal.

In assay [1] the test system is HepG2 cells. As to the kind of experiment: MTT cytotoxicity assay, HepG2. The class given is cell-based, human. The following applies: 72 h. On the technique in general: Formazan colour is commonly taken as a measure of viable cells.
Experimental: (§1) The cytotoxicity study of the prepared copper(II) complexes was performed using the MTT assay on human cell lines—A549 (adenocarcinoma human alveolar basal epithelial cell line), HepG2 (human liver cancer cell line) and HEL (human lung fibroblast cell line, normal cells).
(§2) The cytotoxicity of the prepared copper(II) complexes in human cell lines was evaluated using the 3-(4,5-dimethylthiazol-2-yl)-2,5-diphenyltetrazolium bromide (MTT) assay following the protocol by Mosmann. Briefly, A549 (human lung epithelial cells, carcinoma), HepG2 (human liver epithelial cells, carcinoma) and HEL (human lung fibroblast cells, normal) cells were seeded in plastic 96-well plates at a density of 1.5–2 × 10^4 cells per well. […] After the treatment, the samples were washed with phosphate-buffered saline (PBS), followed by 4 h of incubation with 1 mg/mL of MTT. Subsequently, the MTT solution was removed, and the formed formazane solids were dissolved in dimethyl sulfoxide for 30 min. The photometric evaluation (at 540 nm and 690 nm) was carried out using an xMark™ Microplate Absorbance Spectrophotometer (Bio-Rad, Hercules, CA, USA) [88].
(§3) A549 (ATCC® CCL-185), HepG2 (ATCC® HB-8065) and HEL299 (ATCC® CCL-137) cells were obtained from Lambda Life (Bratislava, Slovakia). A549 cells were kept in Dulbecco’s Modified Eagle’s Medium (DMEM) supplemented with 10% fetal bovine serum (FBS) and 1% antibiotics (penicillin and streptomycin). HepG2 cells were kept in Williams medium supplemented with 10% fetal bovine serum (FBS) and 1% antibiotics (penicillin and streptomycin). HEL299 cells were kept in Minimum Essential Medium (MEM) supplemented with 10% fetal bovine serum (FBS), 1% antibiotics (penicillin and streptomycin) and 1% non-essential amino acids (NEAA). The cells were cultured in a humidified atmosphere of 5% CO2 at 37 °C. Once the cells reached approximately 80% confluence, they were harvested and subcultured after trypsin treatment.
Assay [2] relates to A549 cells. As to the kind of experiment: MTT cytotoxicity assay, A549. Format: cell-based, human. The conditions noted are these: 72 h.
Experimental: as §1, §2, §3
Assay [3] deals with supercoiled DNA plasmid pBR322. As to the kind of experiment: DNA cleavage assay (agarose gel electrophoresis). Format: biochemical. The following applies: for Form I (%) / Form II (%) / Form III (%): 3 h, 37 °C, 250 ng pDNA. The text has this: The gel electrophoresis separation of the supercoiled DNA plasmid pBR322 induced by prepared copper(II) complexes is shown in Figure 7. […] The cleavage activity of 4a and 4c increased remarkably with increasing concentration.
The DNA cleaving activities were also quantified using the “geneQUANT software” (Cleaver Scientific, UK). Data are expressed as percentage (%) expression of the amount of pDNA that has passed through the effect of the nuclease activity of the copper complex from the uncleaved supercoiled Form I to the cleaved Form II (open-circular pDNA) or Form III (linear pDNA) (Table 5). […] Therefore, each percentage can also be converted to the mass of pDNA turned to Form II or III. For example, for complex 4a at a 1 mM concentration, 41.2% of pDNA was cleaved to Form II, which is 103 ng of pDNA, or at a 3 mM concentration, 46.2% corresponds to 115.5 ng of pDNA. Quantification allows us to compare the specific complexes more precisely. […] Some aggregation might be present at higher concentrations, keeping the amount of reactive monomer at a lower level.
The ability of copper(II) complexes to cleave DNA was examined by following the conversion of supercoiled plasmid DNA (Form I) to the open-circular DNA (Form II) and/or linear DNA (forms using agarose gel electrophoresis to separate the cleavage products.
In general, 250 ng of the DNA plasmid pBBR 322 (in 25 mM TRIS-HCl buffer solution, pH 7.5) was treated with different concentrations (1 mM, 3 mM and 5 mM) of the copper(II) complex (dissolved in DMSO) for 3 h at 37 °C. After that, each reaction was quenched by adding 4 μL of a Smart Glow Loading Dye® (loading buffer solution with 0.01% Safe Green dye, 50% glycerol and 250 mM EDTA, pH 8.0) and the sample subjected to electrophoresis (MyGel Mini electrophoresis system®, Accuris, Edison, NJ, USA) on a 0.9% agarose gel containing TAE buffer (40 mM TRIS, 20 mM acetic acid and 1 mM EDTA) at a voltage of 55 V/40 mA for about 1.5 h. As a “running buffer”, TAE buffer (40 mM TRIS, 20 mM acetic acid and 1 mM EDTA) was used. The resulting gels were visualized with UV light and scanned by a mobile device, an Apple iPhone 11 cam 26 mm f1.8. DNA cleaving activities were quantified using the “geneQUANT software” (version 4.3.9, Cleaver Scientific, Rugby, UK).
In the following tables, the percentage (%) expression of the amount of pDNA that has passed through the effect of the nuclease activity of the copper complex from the uncleaved supercoiled form I to the cleaved form II (open circular pDNA) or form III (linear pDNA). Quantitative evaluation was performed using the […] (Cleaver Scientific, UK). V (tested sample) = 20 ul; c (pDNA) = 250 […]
Figure S2-1: The original gel scan: upper left lines 1 – 4 complex 4a (0 mM, 1 mM, 3mM, 5mM), upper lines 6 – 9 complex 4b (0 mM, 1 mM, 3mM, 5mM), lower lines 1 – 4 complex 4c (0 mM, 1 mM, 3mM, […]
(1 picture or pasted object on this page, not shown here)

Consider `COc1ccc(CN=Cc2ccccc2[O-])cc1.COc1ccc(CN=Cc2ccccc2[O-])cc1.[Cl-].[Cl-].[Cu+2].[Cu+2]` [Complex 4c, [Cu2 (Sal-4-MeOBn)2 Cl2]], for which the half-inhibitory concentration (IC50) in assay [1] came out at 21.6 ± 4.9 µM; in assay [2], 72 ± 6.5 µM. In addition, the “mass of pDNA in Form I” value in assay [3] (complex 1 mM, of 250 ng pDNA) is recorded as 124,5 ng; in assay [3] (complex 5 mM, of 250 ng pDNA) it was 11,75 ng. The “mass of pDNA in Form II” value in assay [3] (complex 1 mM, of 250 ng pDNA) is recorded as 125,5 ng; in assay [3] (complex 3 mM, of 250 ng pDNA) it was 250 ng; in assay [3] (complex 5 mM, of 250 ng pDNA), 238,25 ng. In addition, the entries for the “Form I (%)” value in assay [3] (complex 1 × 10^−3 M), in assay [3] (complex 3 × 10^−3 M) and in assay [3] (complex 5 × 10^−3 M) were 49,8%, 0% and 4,7%, respectively. The “Form II (%)” value in assay [3] (complex 1 × 10^−3 M) is recorded as 50,2%; in assay [3] (complex 5 × 10^−3 M), 95,3%. Further, the “Form III (%)” value in assay [3] (complex 1 × 10^−3 M), in assay [3] (complex 3 × 10^−3 M) and in assay [3] (complex 5 × 10^−3 M) was 0% throughout.
Regarding `COc1ccccc1CN=Cc1ccccc1[O-].COc1ccccc1CN=Cc1ccccc1[O-].[Cl-].[Cl-].[Cu+2].[Cu+2]` [Complex 4a, [Cu2 (Sal-2-MeOBn)2 Cl2]], the concentration for half-maximal inhibition (IC50) came out at 17.9 ± 2.6 µM in assay [1] and 66.4 ± 6.2 µM in assay [2]. For the same compound, the “mass of pDNA in Form I” value in assay [3] (complex 1 mM, of 250 ng pDNA) is 147 ng; in assay [3] (complex 3 mM, of 250 ng pDNA), 134,5 ng. In addition, the “mass of pDNA in Form II” value in assay [3] (complex 1 mM, of 250 ng pDNA) was 103 ng; in assay [3] (complex 3 mM, of 250 ng pDNA) it was 115,5 ng. Moreover, the “mass of pDNA in Form III” value in assay [3] (complex 5 mM, of 250 ng pDNA) worked out at 250 ng. In addition, the “Form I (%)” value in assay [3] (complex 1 × 10^−3 M) is reported as 58,8%; in assay [3] (complex 3 × 10^−3 M) it was 53,8%; in assay [3] (complex 5 × 10^−3 M) it was 0%. Moreover, the “Form II (%)” value in assay [3] (complex 1 × 10^−3 M) was 41,2%; in assay [3] (complex 3 × 10^−3 M) it was 46,2%; in assay [3] (complex 5 × 10^−3 M), 0%. Also, the “Form III (%)” value in assay [3] (complex 1 × 10^−3 M) and in assay [3] (complex 3 × 10^−3 M) was 0% each time.
Regarding `COc1cccc(CN=Cc2ccccc2[O][Cu][O]c2ccccc2C=NCc2cccc(OC)c2)c1` [Complex 4b, [Cu (Sal-3-MeOBn)2]], the results for the IC50 in assay [1] and in assay [2] were 32.8 ± 4.9 µM and 127 ± 8.1 µM, respectively. The “mass of pDNA in Form I” value was 146,25 ng in assay [3] (complex 1 mM, of 250 ng pDNA); 140,5 ng in assay [3] (complex 3 mM, of 250 ng pDNA); 120,5 ng in assay [3] (complex 5 mM, of 250 ng pDNA). Moreover, the “mass of pDNA in Form II” value in assay [3] (complex 1 mM, of 250 ng pDNA) is on record as 103,75 ng; in assay [3] (complex 3 mM, of 250 ng pDNA), 109,5 ng; in assay [3] (complex 5 mM, of 250 ng pDNA), 129,5 ng. The “Form I (%)” value was 58,5% in assay [3] (complex 1 × 10^−3 M), 56,2% in assay [3] (complex 3 × 10^−3 M) and 48,2% in assay [3] (complex 5 × 10^−3 M). Besides, the “Form II (%)” value was 41,5% in assay [3] (complex 1 × 10^−3 M), 43,8% in assay [3] (complex 3 × 10^−3 M) and 51,8% in assay [3] (complex 5 × 10^−3 M). The “Form III (%)” value in assay [3] (complex 1 × 10^−3 M), in assay [3] (complex 3 × 10^−3 M) and in assay [3] (complex 5 × 10^−3 M) was 0% in each case.
